Measured values reported in PMC11528066, “Noninvasive Monitoring of Programmed Death-Ligand 2 Expression with Positron Emission Tomography using ^68Ga-labeled Peptide Antagonist in Preclinical and Exploratory Human Studies” (Research, 2024).
Peptide text beside a SMILES is read from it. * marks the point of attachment. NOTA = O=C(O)CN1CCN(CC(=O)O)CCN(CC(=O)*)CC1; AEEEA = NCCOCCOCCOCC(=O)O

Assay: Partition coefficient (log P), 1-octanol/PBS
Format: physicochemical
Conditions: shake-flask 3 mL 1-octanol / 3 mL PBS pH 7.4, vortex 10 min, centrifugation 10,000 rpm 10 min, γ-counter, mean ± SD, n = 5
Procedure: The partition coefficients were assessed using the method described previously. [^68Ga]Ga-HN11-1 and [^68Ga]Ga-HN11-2 was respectively introduced into a mixture comprising 3 mL of 1-octanol and 3 mL of phosphate-buffered saline (PBS) with a pH of 7.4. Following vortexing for 10 minutes and subsequent centrifugation at 10,000 rpm for 10 minutes, samples were taken from both layers and counted using a γ-counter. The log P was determined using the formula: log P = log([M]oct/[M]aq). All measurements were conducted using 5 independent samples and are presented as mean ± standard deviation (SD).

- logD: -0.3 ± 0.0017
SMILES: CC[C@H](C)[C@H](NC(=O)[C@H](CCCNC(=N)N)NC(=O)CNC(=O)[C@H](CCC(=O)O)NC(=O)[C@H](CC(N)=O)NC(=O)[C@H](Cc1ccc(O)cc1)NC(=O)[C@H](CCCNC(=N)N)NC(=O)[C@H](Cc1ccc(O)cc1)NC(=O)[C@H](Cc1c[nH]cn1)NC(=O)COCCOCCOCCNC(=O)CN1CCN(CC(=O)O)CCN(CC(=O)O)CC1)C(=O)N[C@@H](CCCNC(=N)N)C(=O)N[C@@H](CC(N)=O)C(=O)O [[^68Ga]Ga-HN11-1, metal not drawn] ({NOTA-AEEEA}-HYRYNEGRIRN-OH)
